Experimental data taken from the NIST ThermoML archive (doi:10.1016/j.jct.2019.04.017).
Where “and” joins values, the source holds several entries; their conditions need not be identical. Identical values can stand only once. ± gives the expanded uncertainty stated by the source.

Test: xn = mol fraction of the nth substance listed
Settings: 96 kPa, Liquid; for viscosity: Cone and plate viscometry; for electrical conductivity: Frequency=0.001 MHz, Alternating current cell with electrodes

Work on `C1CCC2=NCCCN2CC1` [1,8-diaza-7-bicyclo[5.4.0]undecene] + OCC(O)CO yielded a viscosity (288.1 K, x1 = 0.0501) of 3852 ± 840 mPa·s, a viscosity (288.1 K, x1 = 0.0909) of 5116 ± 1300 mPa·s and a viscosity (288.1 K, x1 = 0.1) of 5432 ± 1400 mPa·s. For the same compound, the viscosity (288.1 K, x1 = 0.1667) was 5975 ± 1600 mPa·s, the viscosity (288.1 K, x1 = 0.2) was 6100 ± 1600 mPa·s and 6110 ± 1700 mPa·s and the viscosity (288.1 K, x1 = 0.2153) was 6150 ± 1600 mPa·s. It also gave a viscosity (288.1 K, x1 = 0.2306) of 6006 ± 1600 mPa·s, a viscosity (288.1 K, x1 = 0.3059) of 5665 ± 1500 mPa·s and a viscosity (288.1 K, x1 = 0.3333) of 5582 ± 1400 mPa·s. The viscosity (288.1 K, x1 = 0.4011) was 5043 ± 1200 mPa·s, the viscosity (288.1 K, x1 = 0.5) was 4049 ± 910 mPa·s and the viscosity (288.1 K, x1 = 0.5632) was 3138 ± 630 mPa·s. It also gave a viscosity (288.1 K, x1 = 0.625) of 1906 ± 310 mPa·s, a viscosity (288.1 K, x1 = 0.75) of 468.1 ± 48 mPa·s and a viscosity (288.1 K, x1 = 0.8333) of 119.1 ± 8.8 mPa·s. For the same compound, the viscosity (288.1 K, x1 = 1) was 15.35 ± 1 mPa·s, the electrical conductivity (288.1 K, x1 = 0.0502) was 0.0181 ± 0.00072 S/m and the electrical conductivity (288.1 K, x1 = 0.0914) was 0.0194 ± 0.00077 S/m. For the same compound, the electrical conductivity (288.1 K, x1 = 0.1) was 0.0187 ± 0.00083 S/m, the electrical conductivity (288.1 K, x1 = 0.1115) was 0.0182 ± 0.00072 S/m and the electrical conductivity (288.1 K, x1 = 0.1266) was 0.0169 ± 0.00067 S/m. For the same compound, the electrical conductivity (288.1 K, x1 = 0.1672) was 0.0141 ± 0.00056 S/m, the electrical conductivity (288.1 K, x1 = 0.2) was 0.0116 ± 0.00046 S/m and the electrical conductivity (288.1 K, x1 = 0.2504) was 0.00817 ± 0.00032 S/m. It also gave an electrical conductivity (288.1 K, x1 = 0.287) of 0.00592 ± 0.00023 S/m, an electrical conductivity (288.1 K, x1 = 0.3338) of 0.00385 ± 0.00015 S/m and an electrical conductivity (288.1 K, x1 = 0.4003) of 0.00156 ± 6.2e-05 S/m. The electrical conductivity (288.1 K, x1 = 0.5) was 0.000299 ± 1.2e-05 S/m, the electrical conductivity (288.1 K, x1 = 0.5656) was 0.000105 ± 4.2e-06 S/m and the electrical conductivity (288.1 K, x1 = 0.6255) was 4.63e-05 ± 1.8e-06 S/m. It also gave an electrical conductivity (288.1 K, x1 = 0.75) of 8.75e-05 ± 3.9e-06 S/m, an electrical conductivity (288.1 K, x1 = 0.753) of 8.75e-05 ± 3.5e-06 S/m and an electrical conductivity (288.1 K, x1 = 0.8333) of 0.000221 ± 9.8e-06 S/m. It also gave an electrical conductivity (288.1 K, x1 = 0.8334) of 0.000221 ± 8.8e-06 S/m, an electrical conductivity (288.1 K, x1 = 0.9094) of 0.000432 ± 1.7e-05 S/m and an electrical conductivity (288.1 K, x1 = 0.95) of 0.000486 ± 1.9e-05 S/m. For the same compound, the electrical conductivity (288.1 K, x1 = 0.975) was 0.000452 ± 1.8e-05 S/m, the electrical conductivity (288.1 K, x1 = 1) was 0.000222 ± 8.8e-06 S/m and the electrical conductivity (293.1 K, x1 = 0.0502) was 0.0243 ± 0.00096 S/m. The electrical conductivity (293.1 K, x1 = 0.0914) was 0.0272 ± 0.0011 S/m, the electrical conductivity (293.1 K, x1 = 0.1115) was 0.0249 ± 0.00099 S/m and the electrical conductivity (293.1 K, x1 = 0.1266) was 0.0238 ± 0.00094 S/m. It also gave an electrical conductivity (293.1 K, x1 = 0.1672) of 0.0208 ± 0.00082 S/m, an electrical conductivity (293.1 K, x1 = 0.2) of 0.0167 ± 0.00066 S/m and an electrical conductivity (293.1 K, x1 = 0.2504) of 0.0117 ± 0.00046 S/m. It also gave an electrical conductivity (293.1 K, x1 = 0.287) of 0.00833 ± 0.00033 S/m, an electrical conductivity (293.1 K, x1 = 0.3338) of 0.00534 ± 0.00021 S/m and an electrical conductivity (293.1 K, x1 = 0.4003) of 0.00223 ± 8.8e-05 S/m. It also gave an electrical conductivity (293.1 K, x1 = 0.5) of 0.000456 ± 1.8e-05 S/m, an electrical conductivity (293.1 K, x1 = 0.5656) of 0.00016 ± 6.3e-06 S/m and an electrical conductivity (293.1 K, x1 = 0.6255) of 7.22e-05 ± 2.9e-06 S/m. For the same compound, the electrical conductivity (293.1 K, x1 = 0.753) was 0.000125 ± 5e-06 S/m, the electrical conductivity (293.1 K, x1 = 0.8334) was 0.000314 ± 1.3e-05 S/m and the electrical conductivity (293.1 K, x1 = 0.9094) was 0.000514 ± 2e-05 S/m. For the same compound, the electrical conductivity (293.1 K, x1 = 0.95) was 0.000561 ± 2.2e-05 S/m, the electrical conductivity (293.1 K, x1 = 0.975) was 0.000511 ± 2e-05 S/m and the electrical conductivity (293.1 K, x1 = 1) was 0.000241 ± 9.5e-06 S/m. It also gave a viscosity (298.1 K, x1 = 0.0501) of 1458 ± 210 mPa·s, a viscosity (298.1 K, x1 = 0.0909) of 1802 ± 280 mPa·s and a viscosity (298.1 K, x1 = 0.1) of 1876 ± 290 mPa·s. It also gave a viscosity (298.1 K, x1 = 0.1667) of 2092 ± 340 mPa·s, a viscosity (298.1 K, x1 = 0.2) of 2107 ± 340 mPa·s and a viscosity (298.1 K, x1 = 0.2153) of 2175 ± 360 mPa·s. The viscosity (298.1 K, x1 = 0.2306) was 2087 ± 340 mPa·s, the viscosity (298.1 K, x1 = 0.3059) was 1988 ± 320 mPa·s and the viscosity (298.1 K, x1 = 0.3333) was 1968 ± 310 mPa·s. The viscosity (298.1 K, x1 = 0.4011) was 1705 ± 260 mPa·s, the viscosity (298.1 K, x1 = 0.5) was 1315 ± 180 mPa·s and the viscosity (298.1 K, x1 = 0.5632) was 1017 ± 130 mPa·s. It also gave a viscosity (298.1 K, x1 = 0.625) of 616.2 ± 66 mPa·s, a viscosity (298.1 K, x1 = 0.75) of 186.1 ± 15 mPa·s and a viscosity (298.1 K, x1 = 0.8333) of 51 ± 3.4 mPa·s. For the same compound, the viscosity (298.1 K, x1 = 1) was 10.32 ± 0.67 mPa·s, the electrical conductivity (298.1 K, x1 = 0.0502) was 0.0327 ± 0.0013 S/m and the electrical conductivity (298.1 K, x1 = 0.0914) was 0.0371 ± 0.0015 S/m. It also gave an electrical conductivity (298.1 K, x1 = 0.1) of 0.0352 ± 0.0016 S/m, an electrical conductivity (298.1 K, x1 = 0.1115) of 0.0339 ± 0.0013 S/m and an electrical conductivity (298.1 K, x1 = 0.1266) of 0.0317 ± 0.0013 S/m. It also gave an electrical conductivity (298.1 K, x1 = 0.1672) of 0.0283 ± 0.0011 S/m, an electrical conductivity (298.1 K, x1 = 0.2) of 0.023 ± 0.00091 S/m and an electrical conductivity (298.1 K, x1 = 0.2504) of 0.0161 ± 0.00064 S/m. It also gave an electrical conductivity (298.1 K, x1 = 0.287) of 0.0112 ± 0.00045 S/m, an electrical conductivity (298.1 K, x1 = 0.3338) of 0.00723 ± 0.00029 S/m and an electrical conductivity (298.1 K, x1 = 0.4003) of 0.00307 ± 0.00012 S/m. It also gave an electrical conductivity (298.1 K, x1 = 0.5) of 0.000675 ± 2.7e-05 S/m, an electrical conductivity (298.1 K, x1 = 0.5656) of 0.000249 ± 9.9e-06 S/m and an electrical conductivity (298.1 K, x1 = 0.6255) of 0.000122 ± 4.8e-06 S/m. For the same compound, the electrical conductivity (298.1 K, x1 = 0.75) was 0.000189 ± 8.4e-06 S/m, the electrical conductivity (298.1 K, x1 = 0.753) was 0.000189 ± 7.5e-06 S/m and the electrical conductivity (298.1 K, x1 = 0.8333) was 0.000405 ± 1.8e-05 S/m. The electrical conductivity (298.1 K, x1 = 0.8334) was 0.000405 ± 1.6e-05 S/m, the electrical conductivity (298.1 K, x1 = 0.9094) was 0.000603 ± 2.4e-05 S/m and the electrical conductivity (298.1 K, x1 = 0.95) was 0.000638 ± 2.5e-05 S/m. For the same compound, the electrical conductivity (298.1 K, x1 = 0.975) was 0.000561 ± 2.2e-05 S/m, the electrical conductivity (298.1 K, x1 = 1) was 0.000267 ± 1.1e-05 S/m and the electrical conductivity (303.1 K, x1 = 0.0502) was 0.0423 ± 0.0017 S/m. For the same compound, the electrical conductivity (303.1 K, x1 = 0.0914) was 0.0478 ± 0.0019 S/m, the electrical conductivity (303.1 K, x1 = 0.1115) was 0.044 ± 0.0017 S/m and the electrical conductivity (303.1 K, x1 = 0.1266) was 0.0433 ± 0.0017 S/m. The electrical conductivity (303.1 K, x1 = 0.1672) was 0.0374 ± 0.0015 S/m, the electrical conductivity (303.1 K, x1 = 0.2) was 0.031 ± 0.0012 S/m and the electrical conductivity (303.1 K, x1 = 0.2504) was 0.0204 ± 0.00081 S/m. The electrical conductivity (303.1 K, x1 = 0.287) was 0.015 ± 0.0006 S/m, the electrical conductivity (303.1 K, x1 = 0.3338) was 0.0103 ± 0.00041 S/m and the electrical conductivity (303.1 K, x1 = 0.4003) was 0.00416 ± 0.00016 S/m. It also gave an electrical conductivity (303.1 K, x1 = 0.5) of 0.000965 ± 3.8e-05 S/m, an electrical conductivity (303.1 K, x1 = 0.5656) of 0.000356 ± 1.4e-05 S/m and an electrical conductivity (303.1 K, x1 = 0.6255) of 0.000176 ± 7e-06 S/m. For the same compound, the electrical conductivity (303.1 K, x1 = 0.753) was 0.000254 ± 1e-05 S/m, the electrical conductivity (303.1 K, x1 = 0.8334) was 0.000526 ± 2.1e-05 S/m and the electrical conductivity (303.1 K, x1 = 0.9094) was 0.000695 ± 2.8e-05 S/m. The electrical conductivity (303.1 K, x1 = 0.95) was 0.000702 ± 2.8e-05 S/m, the electrical conductivity (303.1 K, x1 = 0.975) was 0.000615 ± 2.4e-05 S/m and the electrical conductivity (303.1 K, x1 = 1) was 0.000297 ± 1.2e-05 S/m. For the same compound, the viscosity (308.1 K, x1 = 0.0501) was 626.5 ± 66 mPa·s, the viscosity (308.1 K, x1 = 0.0909) was 759.4 ± 84 mPa·s and the viscosity (308.1 K, x1 = 0.1) was 784.2 ± 88 mPa·s. For the same compound, the viscosity (308.1 K, x1 = 0.1667) was 818.8 ± 93 mPa·s, the viscosity (308.1 K, x1 = 0.2) was 833.7 ± 95 mPa·s and 835.4 ± 100 mPa·s and the viscosity (308.1 K, x1 = 0.2153) was 838.8 ± 96 mPa·s. It also gave a viscosity (308.1 K, x1 = 0.2306) of 828.5 ± 94 mPa·s, a viscosity (308.1 K, x1 = 0.3059) of 771.5 ± 86 mPa·s and a viscosity (308.1 K, x1 = 0.3333) of 742.2 ± 82 mPa·s. It also gave a viscosity (308.1 K, x1 = 0.4011) of 664.5 ± 71 mPa·s, a viscosity (308.1 K, x1 = 0.5) of 503 ± 49 mPa·s and a viscosity (308.1 K, x1 = 0.5632) of 393.5 ± 36 mPa·s. For the same compound, the viscosity (308.1 K, x1 = 0.625) was 224.2 ± 18 mPa·s, the viscosity (308.1 K, x1 = 0.75) was 84.66 ± 5.9 mPa·s and the viscosity (308.1 K, x1 = 0.8333) was 33.4 ± 2.2 mPa·s. The viscosity (308.1 K, x1 = 1) was 8.17 ± 0.53 mPa·s, the electrical conductivity (308.1 K, x1 = 0.0502) was 0.0534 ± 0.0021 S/m and the electrical conductivity (308.1 K, x1 = 0.0914) was 0.062 ± 0.0025 S/m. It also gave an electrical conductivity (308.1 K, x1 = 0.1) of 0.0592 ± 0.0026 S/m.
